Columns and labels:
Type in all cases: cell-based, Epstein-Barr virus (EBV)
[1] = test system: EBV lytic cycle (ZEBRA) in EBV-positive Mutu-I Burkitt lymphoma cells; assay: Flow cytometry for ZEBRA in Mutu-I cells, lytic cycle induced with sodium butyrate; conditions: sodium butyrate 24 hours, 2 h pretreatment
Text: (§1) Cells were harvested, fixed and permeabilized, stained with a monoclonal antibody to the viral latent-to-lytic switch protein ZEBRA, and examined by flow cytometry. Cells were stained in parallel with an isotype-matched control antibody for placement of gates. […] Decreasing EBV switching to lytic phase decreases the risk of the B cells developing lymphoma.

[2] = test system: EBV lytic cycle proteins ZEBRA and EA-D in EBV-positive HH514-16 Burkitt lymphoma cell line; assay: Immunoblotting for ZEBRA and EA-D in HH514-16 cells induced with sodium butyrate
Text: Cells were harvested and subjected to immunoblotting with monoclonal antibodies to ZEBRA and EA-D (Early antigen-diffuse). EA-D is useful in the diagnosis of acute Epstein-Barr virus (EBV) infection and EBV reactivation and functions downstream of ZEBRA.
Cells were harvested and subjected to immunoblotting with monoclonal antibodies to ZEBRA or the control protein β-actin to analyze protein expression.

[3] = test system: ZEBRA and cleaved caspase 1 in EBV-positive Mutu-I Burkitt lymphoma cells; assay: Immunoblotting for ZEBRA, procaspase 1 and cleaved caspase 1 in Mutu-I cells induced with sodium butyrate; conditions: 1 μM for 2 hours before sodium butyrate for 24 hours, FIG. 7
Text: Cells were harvested and subjected to immunoblotting with monoclonal antibodies to ZEBRA, procaspase 1, cleaved caspase 1, or the control protein β-actin to analyze protein expression. […] Cleavage of caspase is a marker for programmed cell death.

[4] = test system: EBV lytic cycle (ZEBRA) in EBV-positive HH514-16 Burkitt lymphoma cell line; assay: Flow cytometry for ZEBRA in HH514-16 cells, lytic cycle induced with sodium butyrate; conditions: for Percent positive cells ZEBRA: 2 h pretreatment
Text: as §1, with “ZEBRA (Z EBV Replication Activator),” for “ZEBRA,”, “cytometry. ZEBRA is an early lytic protein of EBV, encoded by BZLFI, that drives the lytic cascade.” for “cytometry.”

[5] = test system: EBV lytic cycle (ZEBRA) in EBV-positive HH514-16 Burkitt lymphoma cell line; assay: Flow cytometry for ZEBRA in HH514-16 cells, lytic cycle induced with AZA; conditions: for Percent positive cells ZEBRA: 2 h pretreatment
Text: Cells were harvested, fixed and permeabilized, stained with a monoclonal antibody to the viral latent-to-lytic switch protein ZEBRA (Z EBV Replication Activator), and examined by flow cytometry. Cells were stained in parallel with an isotype-matched control antibody for placement of gates.

[6] = test system: EBV lytic cycle (ZEBRA) in EBV-positive Akata Burkitt lymphoma cell line; assay: Flow cytometry for ZEBRA in Akata cells, lytic cycle induced with rabbit-anti human IgG; conditions: for Percent positive cells ZEBRA: Rabbit anti-human IgG induction 24 h, 2 h pretreatment
Text: Akata cells are an EBV-producer line established from a patient with Burkitt's lymphoma. Akata cells produce transforming virus upon treatment of cells with anti-immunoglobulin antibodies. Cells were harvested, fixed and permeabilized, stained with a monoclonal antibody to the viral latent-to-lytic switch protein ZEBRA (Z EBV Replication Activator), and examined by flow cytometry. Cells were stained in parallel with an isotype-matched control antibody for placement of gates.

[7] = test system: EBV lytic cycle proteins ZEBRA and EA-D in EBV-positive HH514-16 Burkitt lymphoma cell line; assay: Immunoblotting for ZEBRA and EA-D in HH514-16 cells induced with AZA; conditions: HH514-16, varying concentrations 2 hours before AZA for 24 hours, FIG. 2
Text: (§2) Cells were harvested and subjected to immunoblotting with monoclonal antibodies to ZEBRA and EA-D (Early antigen-diffuse).

[8] = test system: EBV lytic cycle proteins ZEBRA and EA-D in EBV-positive Akata Burkitt lymphoma cell line; assay: Immunoblotting for ZEBRA and EA-D in Akata cells induced with anti-IgG; conditions: varying concentrations 2 hours before anti-IgG for 24 hours, FIG. 3
Text: as §2

[9] = HH514-16, varying concentrations 2 hours before sodium butyrate for 24 hours, FIG. 4
[10] = HH514-16, varying concentrations 2 hours before NaB for 24 or 48 hours, FIG. 1

Structure (SMILES): CC#CC(=O)N1CCC[C@H]1c1nc(-c2ccc(C(=O)Nc3ccccn3)cc2)c2c(N)nccn12 [Acalabrutinib]
- Percent ZEBRA positive cells ([1]; inhibitor conc. 1 μM): 1.15%
- Percent ZEBRA positive cells ([1]; inhibitor conc. 10 μM): 0.92%
- expression of ZEBRA (immunoblot) [2, 9]: significantly reduced
- Cleaved caspase 1 (immunoblot) [3]: significantly reduced
- expression of ZEBRA (immunoblot) [3]: significantly reduced

Structure (SMILES): C=CC(=O)N1CCC[C@@H](n2nc(-c3ccc(Oc4ccccc4)cc3)c3c(N)ncnc32)C1 [Ibrutinib]
- levels of ZEBRA (flow cytometry, in words) ([4]; HH514-16, NaB 24 or 48 hours, varying concentrations): decreased
- Percent positive cells ZEBRA ([4]; HH514-16, Sodium Butyrate induction 24 h, ibrutinib 0.25 μM): 13%
- Percent positive cells ZEBRA ([4]; HH514-16, Sodium Butyrate induction 24 h, ibrutinib 0.5 μM): 9.5%
- Percent positive cells ZEBRA ([4]; HH514-16, Sodium Butyrate induction 24 h, ibrutinib 1 μM): 9.0%
- Percent positive cells ZEBRA ([4]; HH514-16, Sodium Butyrate induction 24 h, ibrutinib 2 μM): 8.6%
- Percent positive cells ZEBRA ([4]; HH514-16, Sodium Butyrate induction 24 h, ibrutinib 5 μM): 7.0%
- Percent positive cells ZEBRA ([4]; HH514-16, Sodium Butyrate induction 48 h, ibrutinib 0.25 μM): 38%
- Percent positive cells ZEBRA ([4]; HH514-16, Sodium Butyrate induction 48 h, ibrutinib 0.5 μM): 30%
- Percent positive cells ZEBRA ([4]; HH514-16, Sodium Butyrate induction 48 h, ibrutinib 1 μM): 23%
- Percent positive cells ZEBRA ([4]; HH514-16, Sodium Butyrate induction 48 h, ibrutinib 2 μM): 22%
- Percent positive cells ZEBRA ([4]; HH514-16, Sodium Butyrate induction 48 h, ibrutinib 5 μM): 18%
- levels of ZEBRA (flow cytometry, in words) ([5]; HH514-16, AZA 24 or 48 hours, varying concentrations): decreased
- Percent positive cells ZEBRA ([5]; HH514-16, AZA induction 24 h, ibrutinib 0.25 μM): 13%
- Percent positive cells ZEBRA ([5]; HH514-16, AZA induction 24 h, ibrutinib 0.5 μM): 11%
- Percent positive cells ZEBRA ([5]; HH514-16, AZA induction 24 h, ibrutinib 1 μM): 9.0%
- Percent positive cells ZEBRA ([5]; HH514-16, AZA induction 24 h, ibrutinib 2 μM): 10%
- Percent positive cells ZEBRA ([5]; HH514-16, AZA induction 24 h, ibrutinib 5 μM): 9.0%
- Percent positive cells ZEBRA ([5]; HH514-16, AZA induction 48 h, ibrutinib 0.25 μM): 13%
- Percent positive cells ZEBRA ([5]; HH514-16, AZA induction 48 h, ibrutinib 0.5 μM): 13%
- Percent positive cells ZEBRA ([5]; HH514-16, AZA induction 48 h, ibrutinib 1 μM): 15%
- Percent positive cells ZEBRA ([5]; HH514-16, AZA induction 48 h, ibrutinib 2 μM): 13%
- Percent positive cells ZEBRA ([5]; HH514-16, AZA induction 48 h, ibrutinib 5 μM): 14%
- Percent positive cells ZEBRA ([6]; ibrutinib 0.25 μM): 7%
- Percent positive cells ZEBRA ([6]; ibrutinib 0.5 μM): 7%
- Percent positive cells ZEBRA ([6]; ibrutinib 1 μM): 5.5%
- Percent positive cells ZEBRA ([6]; ibrutinib 2 μM): 5.7%
- Percent positive cells ZEBRA ([6]; ibrutinib 5 μM): 5.7%
- levels of ZEBRA (flow cytometry, in words) ([6]; rabbit-anti human IgG 24 hours, varying concentrations): decreased
- Percent ZEBRA positive cells ([1]; inhibitor conc. 0.5 μM): 0.52%
- Percent ZEBRA positive cells ([1]; inhibitor conc. 1 μM): 0.73%
- expression of EA-D (immunoblot) [2, 10]: significantly reduced
- expression of ZEBRA (immunoblot) [2, 10]: significantly reduced
- expression of ZEBRA (immunoblot) [2, 9]: significantly reduced
- expression of EA-D (immunoblot) [7]: significantly reduced
- expression of ZEBRA (immunoblot) [7]: significantly reduced
- expression of EA-D (immunoblot) [8]: significantly reduced
- expression of ZEBRA (immunoblot) [8]: significantly reduced

Structure (SMILES): C=CC(=O)N1CCC([C@@H]2CCNc3c(C(N)=O)c(-c4ccc(Oc5ccccc5)cc4)nn32)CC1 [Zanubrutinib]
- Percent ZEBRA positive cells ([1]; inhibitor conc. 1 μM): 0.65%
- Percent ZEBRA positive cells ([1]; inhibitor conc. 10 μM): 0.85%
- expression of ZEBRA (immunoblot) [2, 9]: significantly reduced
- Cleaved caspase 1 (immunoblot) [3]: significantly reduced
- expression of ZEBRA (immunoblot) [3]: significantly reduced

Source: patent publication US20250041308A1, “BRUTON'S TYROSINE KINASE INHIBITORS AS ANTIVIRAL AGENTS” (University of Florida Research Foundation, Incorporated, priority 2022, published 2025)
